Results as given in patent publication US9562017B2, “Hydrogen sulfate salt” (Array BioPharma Inc., priority 2005, dated 2017).
Structures can show the parent of a compound that is named as a salt.

What was measured:
[1] = Plasma levels of Compound 1 in fasted dogs after oral dispersion doses, salt versus free base; assay type: in vivo, beagle dogs; details: crystalline salt compared to the free base and other salts
Description: Single doses of 150 mg were administered orally to fasted beagle dogs weighing 12-17 kg and about 2 to 6 years old on each of three dosing days. Each dosing day was 1 week apart.
All formulations were prepared extemporaneously just prior to dosing by adding 7.5 mL of the appropriate dispersing solution via a 10 mL disposable syringe, to vials containing 150 mg free base equivalents of the appropriate drug form, capping and vortex mixing for 30 seconds to form a dispersion.
The dispersion was removed from the vial using the disposable syringe and dosed to the animal via a gavage tube positioned into the stomach. The vials were rinsed twice by adding, for each of the two rinses, a separate 15 mL aliquot of water (total rinse volume=30 mL) via a 20 mL disposable syringe, capping, vortex mixing for 5 seconds, removing the wash solution from the vial using the disposable syringe and dosing to the animal via the gavage tube.
Dogs were fed about 400 g of Special Diet Services Laboratory Diet A each day and allowed water ad libitum. Whole blood (2 mL) in lithium heparin tubes were taken from the jugular vein immediately prior to dosing and at 0.5, 1, 2, 3, 4, 5, 6, 8, 12, 18, 24, 36 and 48 hours. The blood was centrifuged at 3000 rpm for 15 minutes and plasma was removed into plain blood tubes and the plasma stored at −20° C. until analysis. […]

[2] = Dissolution rate of the crystalline salt; assay type: physicochemical; details: crystalline salt compared to the free base and other salts
BCS classification = assay type: physicochemical; details: free base
From the text: BCS Class 4 compounds normally have low bioavailability due to both low dissolution rate and permeability, and the limitation of permeability on absorption means that such salts would not usually be expected exert a substantial impact on absorption (See for example: Dressman et al. (2001) Pharm Tech. July: 68).

Row | SMILES | bioavailability [1] | dissolution rate [2] | BCS Class (BCS classification)
1 | Cn1cnc2c(F)c(Nc3ccc(Br)cc3Cl)c(C(=O)NOCCO)cc21 [hydrogen sulfate salt, 6-(4-bromo-2-chloro-phenylamino)-7-fluoro-3-methyl-3H-benzoimidazole-5-carboxylic acid (2-hydroxy-ethoxy)-amide hydrogen sulfate] | particularly high | particularly high | –
2 | Cn1cnc2c(F)c(Nc3ccc(Br)cc3Cl)c(C(=O)NOCCO)cc21 [Compound 1, 6-(4-bromo-2-chloro-phenylamino)-7-fluoro-3-methyl-3H-benzoimidazole-5-carboxylic acid (2-hydroxy-ethoxy)-amide] | – | – | BCS Class 4
